This passage reports IC50 results from BindingDB's records for doi:10.1016/j.ejmech.2019.111574 (Chungnam National University, 2019).

Molecules are shown by their SMILES. Bounds are passed on as bounds.

The assay can be described thus: Inhibition of IL-5 receptor in mouse pro-B Y16 cells assessed as decrease in mIL-5 dependent cell proliferation after 48 hrs in presence of 3 units/ml mIL-5 by WST-1 assay. On the technique in general: Tetrazolium assays rely on reduction of a dye to a coloured formazan, in cell work by metabolically active cells.

Take `OCCCNCc1nc2c(OCC3CCCCC3)cccc2[nH]1`: the IC50 is 28.5 µM. To `CCN(CCO)Cc1nc2c(OCC3CCCCC3)cccc2[nH]1` belongs more than 30 µM. To `c1ccc(CNCc2nc3c(OCC4CCCCC4)cccc3[nH]2)cc1` belongs more than 30 µM.

With `OCCNCc1nc2c(OCC3CCCCC3)cccc2[nH]1`, the IC50 was 20 µM. To `CCC(CO)NCc1nc2c(OCC3CCCCC3)cccc2[nH]1` (configuration not stated) belongs 3.5 µM. Take `CCCC(CO)NCc1nc2c(OCC3CCCCC3)cccc2[nH]1` (configuration not stated): the IC50 worked out at 7.5 µM. To `CC(C)(CO)NCc1nc2c(OCC3CCCCC3)cccc2[nH]1` belongs 27.5 µM; to `OCC(Cc1ccccc1)NCc1nc2c(OCC3CCCCC3)cccc2[nH]1` (configuration not stated), 12 µM. Next, `CCCN(CCO)Cc1nc2c(OCC3CCCCC3)cccc2[nH]1`: 20 µM; `CC(C)N(CCO)Cc1nc2c(OCC3CCCCC3)cccc2[nH]1`: more than 30 µM. Next, `OCCN(Cc1nc2c(OCC3CCCCC3)cccc2[nH]1)C1CCCCC1`: more than 30 µM.

With `OCCN(Cc1nc2c(OCC3CCCCC3)cccc2[nH]1)CC1CCCCC1`, the IC50 is 21 µM. To `OCCN(Cc1ccc(Cl)cc1)Cc1nc2c(OCC3CCCCC3)cccc2[nH]1` belongs 13 µM. To `COc1ccc(CN(CCO)Cc2nc3c(OCC4CCCCC4)cccc3[nH]2)cc1` belongs 19 µM. For `c1ccc(NCc2nc3c(OCC4CCCCC4)cccc3[nH]2)cc1`, the IC50 was more than 30 µM.

Turning to `OCCCCNCc1nc2c(OCC3CCCCC3)cccc2[nH]1`, the IC50 amounted to 30 µM. Next, `OCC(CC1CCCCC1)NCc1nc2c(OCC3CCCCC3)cccc2[nH]1` (configuration not stated): 5 µM; `OCCN(Cc1ccccc1)Cc1nc2c(OCC3CCCCC3)cccc2[nH]1`: 25 µM; `COc1ccc(CNCc2nc3c(OCC4CCCCC4)cccc3[nH]2)cc1`: more than 30 µM. Next, `OCC(NCc1nc2c(OCC3CCCCC3)cccc2[nH]1)c1ccccc1` (configuration not stated): 20 µM. On to `OCCCCCNCc1nc2c(OCC3CCCCC3)cccc2[nH]1`, for which the IC50 was more than 30 µM.

For the compound `OCCC(NCc1nc2c(OCC3CCCCC3)cccc2[nH]1)c1ccccc1` (configuration not stated), the IC50 was 22 µM. Consider `CN(CCO)Cc1nc2c(OCC3CCCCC3)cccc2[nH]1`, for which the IC50 was more than 30 µM. To `OCCN(Cc1ccncc1)Cc1nc2c(OCC3CCCCC3)cccc2[nH]1` belongs more than 30 µM. To `COc1ccc(NCc2nc3c(OCC4CCCCC4)cccc3[nH]2)cc1` belongs more than 30 µM; to `CCCC1O[C@@H]2C[C@H]3[C@@H]4CCC5=CC(=O)C=C[C@]5(C)[C@H]4[C@@H](O)C[C@]3(C)[C@]2(C(=O)CO)O1` (some centres not stated) [BUDESONIDE], 26.2 µM; to `O=c1c(-c2ccc(O[C@@H]3O[C@H](CO)[C@@H](O)[C@H](O)[C@H]3O)cc2)coc2cc(O)cc(O)c12` [Sophoricoside], 10.6 µM.

The IC50 is the concentration that inhibits the measured activity by half.
